Experimental data as given in PMC11459959, “Discovery of new acetamide derivatives of 5-indole-1,3,4-oxadiazol-2-thiol as inhibitors of HIV-1 Tat-mediated viral transcription” (Antimicrobial Agents and Chemotherapy, 2024).
Like-named read-outs stand apart in the source and are kept apart here.

Tests used:
Type in all cases: cell-based
[1] = tested on: general cellular transcription/translation (R-Luc); experiment: Dual-reporter assay, R-Luc in bl-DTR cells; conditions: doxycycline, 24 h
Procedure: Fig 1 (A) (Top panel) Schematic representation of the primary compound screening using a dual-reporter system. […] (B). […] (Top graphs) bl-DTR cells (1 × 10^4) were treated with twofold serial dilutions of each compound before doxycycline (Dox) addition (final concentration, 50 ng/mL). After 24 h of treatment, the activities of firefly luciferase (F-Luc, red line) and Renilla luciferase (R-Luc, blue line) were determined using the Dual-Glo Luciferase assay system. (Bottom graphs) TZM-bl cells were treated with each indicated compound and subsequently infected with the HIV-1NL4-3 strain at a multiplicity of infection (MOI) of 1. At 48 h after infection, the viral infectivity (purple line) and cell viability (green line) were determined using the Bright-Glo luciferase assay kit and the PrestoBlue Cell Viability Reagent, respectively. […] (C). […] The targeted moieties for the SAR study are marked with dotted-circle lines.
The Tzm-bl-derived dual Tat reporter; TZM-bl/Tat/Rluc (bl-DTR) cells were established from TZM-bl cells using two Dox-inducible lentiviral expression cassettes cloned with Flag-tagged Tat86 and the R-Luc gene, as described in our previous study ([11]). TZM-bl, A3.01, J1.1, and J-Lat 6.3 cells as well as the HIV-1 molecular clone pNL4-3, pNL(AD8), ARV-resistant HIV-1 strains, and HIV-1NL43-IRES-eGFP (pBR43IeG-nef^+, gifted by Dr. Frank Kirchhoff) ([52]) were provided by the National Institute of Health HIV Reagent Program (NIH, Bethesda, MD, USA). HeLa (CCL-2) and 293T (CRL-3216) cell lines were purchased from the American Type Culture Collection (ATCC, Manassas, VA, USA). The bl-DTR, TZM-bl, HeLa, and 293T cells were cultured in Dulbecco’s modified Eagle’s medium supplemented with 1% penicillin–streptomycin and 10% (vol/vol) heat-inactivated fetal bovine serum (all from Gibco-BRL, Gaithersburg, MD, USA), and 1 µg/mL of puromycin and 200 µg/mL of zeocin were additionally supplemented for the bl-DTR cells. PBMCs were purchased from AllCells (Alameda, CA, USA) and cultured as previously described ([12]). The information on ARV-resistant HIV-1 strains was described in previous reports as follows: NNRTI-resistant 12241 and 12243 ([53]); NRTI-resistant 7396, 7406, and 7407 ([54]); INSTI-resistant 11847 and 11849 ([55], [56]); and PI-resistant 11800 and 11803 ([57]). Each molecular HIV-1 clone was transfected to 293T cells, as previously described ([58]), to obtain infectious HIV-1 particles. Virus-containing cell culture supernatants were collected 3 days after transfection, and filtered through a 0.45-µm membrane filter (Millipore Sigma, Burlington, MA, USA) to remove cell debris. The viral titration was performed as described previously ([59]) with some minor modifications. In brief, 1 × 10^4 TZM-bl cells seeded in 96-well plates were infected with 200 µL of virus-containing medium diluted serially twofold. The incubation was for 2 days and the experiment was performed in triplicate; the infection time minimized the virus spread ([59]). The titration of the infectious viral particles was performed with a ß-Gal staining assay using the ßeta-Galactosidase Staining Kit (Mirus Bio, Madison, WI, USA) following the manufacturer’s protocols. In brief, the infected cells were washed with phosphate-buffered saline (PBS) and fixed using a Cell Fixative Working solution. The cells were washed with PBS and stained using the Cell Staining Working Solution containing X-gal. The infected blue-colored cells were counted under a microscope (100× magnification). The infectious virus titer was determined as a mean value of blue-colored cells count × dilution factor and used for determining the multiplicity of infection (MOI) in each infection experiment.

[2] = tested on: HIV-1NL4-3 IRES-eGFP-nef+; experiment: eGFP-encoding HIV-1 infection of TZM-bl cells; conditions: 9, 10, 13 1.5 μM, 20, 21, 22 4 μM, seliciclib 10 µM, triptolide 5 nM, DTG 2 nM, EFV 2 nM, 2 days
[3] = Cell viability of TZM-bl cells (PrestoBlue); conditions: human

Row | Compound | Relative R-Luc activity at IC50 of F-Luc [1] | inhibition of viral-expressed eGFP signal [2] | CC50 at 48 h [3] [µM] | CC50 at 48 h ([3]; TZM-bl cells, absence of HIV-1 infection, mean ± SD, read-out: CC50) [µM]
1 | Cc1[nH]c2ccc(-c3nnc(SCC(=O)N4CCCCC4)o3)cc2c1C [Compound 9, 2-((5-(2,3-Dimethyl-1H-indol-5-yl)-1,3,4-oxadiazol-2-yl)thio)-1-(piperidin-1-yl)ethan-1-one] | >100 | remarkably inhibited | 63.2 ± 5.94 | –
2 | CC(C)[C@]12O[C@H]1[C@@H]1O[C@]13[C@]1(O[C@H]1C[C@H]1C4=C(CC[C@@]13C)C(=O)OC4)[C@@H]2O [triptolide, reference compound] | >100 | remarkably inhibited | – | 0.02
3 | C[C@@H]1CCO[C@H]2Cn3cc(C(=O)NCc4ccc(F)cc4F)c(=O)c(O)c3C(=O)N12 [DTG, dolutegravir, reference compound] | – | remarkably inhibited | – | –
4 | Cc1[nH]c2ccc(-c3nnc(SCC(=O)N4CCCC4)o3)cc2c1C [Compound 13, 2-((5-(2,3-Dimethyl-1H-indol-5-yl)-1,3,4-oxadiazol-2-yl)thio)-1-(pyrrolidin-1-yl)ethan-1-one] | >100 | remarkably inhibited | 47.1 ± 7.72 | –
5 | O=C1Nc2ccc(Cl)cc2[C@@](C#CC2CC2)(C(F)(F)F)O1 [EFV, efavirenz, reference compound] | – | remarkably inhibited | – | –
